Results from patent US20250197428A1, “INHIBITORS OF KIF18A AND USES THEREOF” (ACCENT THERAPEUTICS, INC., priority 2022, published 2025).
Read-outs that look alike come from different tables or passages of the source.

Tests used:
OVCAR-3 cells = assay: In vitro anti-proliferative activity assay in cancer cell line OVCAR-3 (CellTiter-Glo, 4- or 7-day); type: cell-based; settings: Homo sapiens, read-out: OVCAR-3 cellular antiproliferation assay IC50
KIF18A = KIF18A (Homo sapiens (Human), UniProt Q8NI77); assay: KIF18A Biochemical Assay (ATPase, ADP-Glo)
[1] = Caco-2 permeation assay, bidirectional permeability; type: in vitro ADME; settings: human, Caco-2, pH 7.4, 5 μM, Papp(B-A)/Papp(A-B)
Procedure: 1. Caco-2 Permeation Assay: Evaluation of the Bidirectional Permeabilities of Compounds.
Samples were analyzed through LC/MS/MS for estimating the apparent permeability coefficients (Papp) of compounds across Caco-2 cell monolayers. Caco-2 cells (American Type Culture Collection) were incubated and seeded onto HTS Transwell-96 Well Permeable Supports (Corning Corporation) for 14 days using a cell medium consisting of Dulbecco's Modified Eagle's Medium (DMEM) with high glucose and L-glutamine supplemented with 10% FBS, 1× penicillin-streptomycin mixture and 1×non-essential amino acids (NEAA). Cell monolayer integrity was measured using an automated tissue resistance measuring system (World Precision Instruments). Stock solutions of compounds and control compounds in DMSO were diluted with HBSS (10 mM HEPES, pH 7.4) to reach a final concentration of 5 μM with a final concentration of DMSO <0.1%. HBSS was then removed after 30 minutes of preincubation, and 75 μL of test compound was added to the apical compartment of the Transwell insert. The basolateral compartment was filled with 235 μL of HBSS (10 mM HEPES, pH 7.4) containing 2% BSA. Rate of drug transport in the basolateral to apical direction was obtained by adding 235 μL of test compound to the receiver plate wells (basolateral compartment) and filling with 75 μL of HBSS (10 mM HEPES, pH 7.4) containing 2% BSA. Time 0 samples were prepared by transferring 25 μL of 5 μM working solution to wells of the 96-deepwell plate containing 25 μL HBSS (10 mM HEPES and 2% BSA, pH 7.4), followed by the addition 200 μL of cold methanol containing appropriate internal standards (100 nM alprazolam, 200 nM labetalol, 200 nM caffeine and 200 nM diclofenac). After incubating at 37° C. for 2 h, 25 μL samples from donor sides (apical compartment) were transferred to a 96-well plate containing 25 μL HBSS (10 mM HEPES and 2% BSA, pH 7.4). 25 μL samples from receiver sides (basolateral compartment) were removed and transferred to a new plate containing 25 μL HBSS (10 mM HEPES, pH 7.4). 200 μL of cold methanol containing internal standards (100 nM alprazolam, 200 nM labetalol, 200 nM caffeine and 200 nM diclofenac) was added to terminate the reaction. Samples were vortexed for 5 minutes and then centrifuged at 3,220 g for 40 minutes. An aliquot of 100 μL of the supernatant is mixed with 100 μL of ultra-pure water for LC-MS/MS analysis. All incubations are performed in duplicate. Solutions were discarded from the transwell plate. 100 μL Lucifer Yellow solution (100 μM in HBSS) was added to each well of transwell insert and 300 μL of HBSS to each well of receiver. After incubating at 37° C. for 30 minutes, 80 μL was aliquotted from each well of apical and basolateral sides to a solid black plate. The plate was then read with Tecan Infinite™ M 200 (Excitation/Emission wavelength […]).
All calculations were carried out using Microsoft Excel. Peak areas were determined from extracted ion chromatograms. The leakage of Lucifer Yellow, in unit of percentage (%), can be calculated using the following equation: […]
LY leakage of <1% is acceptable to indicate the well-qualified Caco-2 monolayers. The apparent permeability coefficient (Papp), in units of centimeter per second, can be calculated for Caco-2 drug transport assays using the following equation: […]
Where VA is the volume (in mL) in the receiver well (0.235 mL for Ap→Bl flux and 0.075 mL for Bl→Ap flux), Area is the surface area of the membrane (0.143 cm^2 for HTS Transwell-96 Well Permeable Supports), and time is the total transport time in seconds. The efflux ratio can be determined using the following equation: […]
Where Papp (B-A) indicates the apparent permeability coefficient in basolateral to apical direction, and Papp (A-B) indicates the apparent permeability coefficient in apical to basolateral direction.
The recovery can be determined using the following equation: […]

Sequence of KIF18A (Q8NI77 1-367): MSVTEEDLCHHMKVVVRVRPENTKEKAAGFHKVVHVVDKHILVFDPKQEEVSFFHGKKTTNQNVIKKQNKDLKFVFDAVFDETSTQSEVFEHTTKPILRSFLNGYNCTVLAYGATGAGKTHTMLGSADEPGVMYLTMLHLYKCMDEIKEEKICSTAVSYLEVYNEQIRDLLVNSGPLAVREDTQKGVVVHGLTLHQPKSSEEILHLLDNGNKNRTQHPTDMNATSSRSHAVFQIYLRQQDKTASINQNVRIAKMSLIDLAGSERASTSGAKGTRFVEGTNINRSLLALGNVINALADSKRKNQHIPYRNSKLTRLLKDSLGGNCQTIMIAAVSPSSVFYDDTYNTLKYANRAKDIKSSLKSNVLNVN
Sequence of KIF18A (P02550 whole entry partner): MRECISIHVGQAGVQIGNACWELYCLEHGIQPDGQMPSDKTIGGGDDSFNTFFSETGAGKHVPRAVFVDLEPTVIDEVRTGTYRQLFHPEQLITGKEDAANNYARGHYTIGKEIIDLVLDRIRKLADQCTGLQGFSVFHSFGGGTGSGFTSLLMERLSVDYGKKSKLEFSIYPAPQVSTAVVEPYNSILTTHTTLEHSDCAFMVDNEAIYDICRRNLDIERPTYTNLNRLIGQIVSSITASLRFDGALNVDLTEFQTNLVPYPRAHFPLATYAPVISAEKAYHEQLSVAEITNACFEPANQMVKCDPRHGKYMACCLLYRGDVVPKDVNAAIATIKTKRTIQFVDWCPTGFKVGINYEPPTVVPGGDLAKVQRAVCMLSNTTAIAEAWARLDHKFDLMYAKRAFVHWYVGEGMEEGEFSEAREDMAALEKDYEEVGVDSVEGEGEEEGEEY
Sequence of KIF18A (P02554 whole entry partner): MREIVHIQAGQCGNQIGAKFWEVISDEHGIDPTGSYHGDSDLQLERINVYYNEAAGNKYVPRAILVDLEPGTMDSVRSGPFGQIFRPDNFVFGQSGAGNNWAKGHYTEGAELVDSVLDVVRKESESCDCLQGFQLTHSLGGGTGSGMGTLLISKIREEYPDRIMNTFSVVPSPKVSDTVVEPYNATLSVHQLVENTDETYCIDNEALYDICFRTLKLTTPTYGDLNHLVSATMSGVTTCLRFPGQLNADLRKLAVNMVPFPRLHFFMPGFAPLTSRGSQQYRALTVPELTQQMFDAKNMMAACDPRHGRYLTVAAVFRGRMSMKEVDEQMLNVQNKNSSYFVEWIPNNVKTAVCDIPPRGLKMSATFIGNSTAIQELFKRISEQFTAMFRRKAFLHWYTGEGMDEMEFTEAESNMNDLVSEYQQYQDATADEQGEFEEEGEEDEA

Structure (SMILES)	IC50 (OVCAR-3 cells; OVCAR-3, 96 h, 4-day assay) [nM]	IC50 (KIF18A) [nM]	efflux ratio at 2 h, 5 μM [1]	IC50 (OVCAR-3 cells; OVCAR-3, 168 h, 7-day assay) [nM]	IC50 (OVCAR-3 cells; OVCAR-3, assay duration not indicated) [nM]
C[Si]1(C)CCN(c2cc(NS(=O)(=O)CCO)ccc2C(=O)Nc2cccc(OCCC(F)(F)F)n2)CC1 [Example 16]	< 100	< 100	< 10		
C[Si]1(C)CCN(c2cc(NS(=O)(=O)CCO)ccc2C(=O)Nc2ccnc(N3CCCC(C#N)C3)n2)CC1 (stereo not shown) [Example 94]	100 to 500		< 10		
C[Si]1(C)CCN(c2cc(NS(=O)(=O)CCO)c(F)cc2NC(=O)c2ccnc(N3CCC(F)(F)CC3)n2)CC1 [Example 90]			< 10	100 to 500	
C[Si]1(C)CCN(c2cc(S(=O)(=O)CCO)ccc2C(=O)Nc2cccc(OC[C@H](O)C(F)(F)F)n2)CC1 [Example 130]		< 100		100 to 500	
Cc1cc(NC(=O)c2ccc(NS(=O)(=O)CCO)cc2N2CC[C@@]3(C(F)F)C[C@H]3C2)nc(OC[C@H](O)C(F)(F)F)n1 [Example 68]		> 1000		> 1000	
C[Si]1(C)CCN(c2cc(NS(=O)(=O)CCO)ccc2NC(=O)c2ccnc(N3CCC(F)(F)CC3)n2)CC1 [Example 23]	100 to 500	100 to 500			
O=C(Nc1ccnc(N2CCC(F)(F)CC2)n1)c1ccc(NS(=O)(=O)CCO)cc1N1CC[C@@]2(C(F)F)C[C@H]2C1 [Example 61]		< 100		100 to 500	
C[Si]1(C)CCN(c2cc(NS(=O)(=O)NCCO)ccc2C(=O)Nc2cccc(OC[C@@H](O)C(F)(F)F)n2)CC1 [Example 125]		< 100		100 to 500	
Cc1cc(NC(=O)c2cc(F)c(NS(=O)(=O)CCO)cc2N2CC[Si](C)(C)CC2)nc(N2CCC(F)(F)CC2)n1 [Example 103]		< 100		100 to 500	
CO[C@@]12CCN(c3cc(NS(=O)(=O)CCO)ccc3C(=O)Nc3cc(C)nc(N4CCC(F)(F)CC4)n3)C[C@@H]1C2 [Example 82]		< 100		500 to 1000	
Cc1cc(NC(=O)c2ccc(NS(=O)(=O)CCO)cc2N2CC[C@]3(C(F)F)C[C@@H]3C2)nc(N2CCC(F)(F)CC2)n1 [Example 29a, 2-((1S,6R)-6-(difluoromethyl)-3-azabicyclo[4.1.0]heptan-3-yl)-N-(2-(4,4-difluoropiperidin-1-yl)-6-methylpyrimidin-4-yl)-4-((2-hydroxyethyl)sulfonamido)benzamide]	< 100	< 100			
Cc1cc(NC(=O)c2ccc(NS(=O)(=O)CCO)cc2N2CCC3(CO)CC3C2)nc(N2CCC(F)(F)CC2)n1 (stereo not shown) [Example 30, N-(2-(4,4-difluoropiperidin-1-yl)-6-methylpyrimidin-4-yl)-4-((2-hydroxyethyl)sulfonamido)-2-(6-(hydroxymethyl)-3-azabicyclo[4.1.0]heptan-3-yl)benzamide]	> 1000	100 to 500			
C[Si]1(C)CCN(c2cc(S(=O)(=O)NCCO)ccc2C(=O)Nc2cccc(OC[C@H](O)C(F)(F)F)n2)CC1 [Example 132]		< 100		< 100	
C[Si]1(C)CCN(c2cc(NS(=O)(=O)CCO)ccc2C(=O)Nc2cccc(C3(C(F)(F)F)N=N3)c2)CC1 [Example 87]		< 100		100 to 500	
O=C(Nc1ccnc(N2CCC(F)(F)CC2)n1)c1c(F)cc(NS(=O)(=O)CCO)cc1N1CC[C@]2(C(F)F)C[C@@H]2C1 [Example 69]		< 100		> 1000	
Cc1cc(NC(=O)c2ccc(NS(=O)(=O)CCO)cc2N2CC[C@]3(F)CC[C@@H]3C2)nc(N2CCC(F)(F)CC2)n1 (single isomer, unassigned) [Example 50a]		< 100		100 to 500	
C[Si]1(C)CCN(c2cc(NS(=O)(=O)CCO)ccc2C(=O)Nc2ccnc(C3CC3)n2)CC1 [Example 15]	> 1000	< 100			
Cc1cc(NC(=O)c2ccc(NS(=O)(=O)CCO)cc2N2CCC3(C(F)F)CC3C2)nc(N2CCC(F)(F)CC2)n1 (stereo not shown) [Example 41]		< 100			< 100

Structure (SMILES)	IC50 (OVCAR-3 cells; OVCAR-3, 96 h, 4-day assay) [nM]	IC50 (KIF18A) [nM]	efflux ratio at 2 h, 5 μM [1]	IC50 (OVCAR-3 cells; OVCAR-3, 168 h, 7-day assay) [nM]	IC50 (OVCAR-3 cells; OVCAR-3, assay duration not indicated) [nM]
CC1CN(c2cccc(NC(=O)c3ccc(NS(=O)(=O)CCO)cc3N3CC[Si](C)(C)CC3)n2)CCO1 (stereo not shown) [Example 19]	< 100	< 100			
Cc1cc(NC(=O)c2ccc(NS(=O)(=O)CCO)cc2N2CC[Si](C)(C)CC2)nc(N2CCC(F)(F)CC2)c1F [Example 133]		< 100		100 to 500	
O=C(Nc1cccc(N2CCC(F)(F)CC2)n1)c1c(F)cc(NS(=O)(=O)CCO)cc1N1CC[C@]2(C(F)F)C[C@@H]2C1 [Example 83]		< 100		500 to 1000	
C[Si]1(C)CCN(c2cc(NS(=O)(=O)CCO)cc(F)c2C(=O)Nc2cccc(OC[C@H](O)C(F)(F)F)n2)CC1 [Example 124]		< 100		100 to 500	
Cc1cc(NC(=O)c2ccc(NS(=O)(=O)CCO)cc2N2CC[C@]3(C(C)(F)F)C[C@@H]3C2)nc(N2CCC(F)(F)CC2)n1 [Example 79]		100 to 500		> 1000	
Cc1cc(NC(=O)c2ccc(NS(=O)(=O)CCO)cc2N2CC[C@@]3(CO)C[C@H]3C2)nc(N2CCC(F)(F)CC2)n1 [Example 39]	> 1000	100 to 500			
CNCCS(=O)(=O)Nc1ccc(C(=O)Nc2cccc(N3CCC(F)(F)CC3)n2)c(N2CC[Si](C)(C)CC2)c1 [Example 101]		< 100		100 to 500	
Cc1cc(NC(=O)c2ccc(NS(=O)(=O)CCO)cc2N2CC[C@]3(CO)C[C@@H]3C2)nc(N2CCC(F)(F)CC2)n1 [Example 40]	> 1000	> 1000			
C[Si]1(C)CCN(c2cc(NS(=O)(=O)CCO)ccc2C(=O)Nc2cccc(S(=O)(=O)C3CCCC3)n2)CC1 [Example 22]	< 100	100 to 500			
Cc1cc(NC(=O)c2ccc(NS(C)(=O)=O)cc2N2CC[C@@]3(C(F)F)C[C@H]3C2)nc(N2CCC(F)(F)CC2)n1 [Example 55]		< 100		500 to 1000	
Cc1cc(NC(=O)c2ccc(NS(=O)(=O)CCO)cc2N2CC[C@@]3(C(F)F)C[C@H]3C2)nc(OC[C@@H](O)C(F)(F)F)n1 [Example 74]		> 1000		> 1000	
Cc1cc(NC(=O)c2ccc(S(=O)(=O)NCCO)cc2N2CC[C@]3(C(F)F)C[C@@H]3C2)nc(N2CCC(F)(F)CC2)n1 [Example 77]		100 to 500		100 to 500	
Cc1cc(NC(=O)c2ncc(NS(=O)(=O)CCO)nc2N2CC[Si](C)(C)CC2)nc(N2CCC(F)(F)CC2)n1 [Example 105]		> 1000		> 1000	
Cc1cc(NC(=O)c2ccc(NS(=O)(=O)NCCO)cc2N2CC[C@@]3(C)C[C@H]3C2)nc(N2CCC(F)(F)CC2)n1 [Example 42]	> 1000	< 100			
C[Si]1(C)CCN(c2cc(NS(=O)(=O)CCO)ccc2NC(=O)c2cccc(N3CCC(F)(F)CC3)n2)CC1 [Example 96]	< 100		< 10		
CC1CN(c2cccc(NC(=O)c3ccc(S(=O)(=O)NCCO)cc3N3CC[Si](C)(C)CC3)n2)CCO1 (stereo not shown) [Example 18]	< 100	< 100			
Cc1cc(NC(=O)c2c(F)cc(NS(=O)(=O)CCO)cc2N2CC[C@]3(C(F)F)C[C@@H]3C2)nc(N2CCC(F)(F)CC2)n1 [Example 71]		100 to 500		> 1000	
CC(C)(CO)Nc1ccc(C(=O)Nc2cccc(S(=O)(=O)C3CCCC3)c2)c(N2CC[Si](C)(C)CC2)n1 [Example 97]		> 1000		> 1000	
